What was measured:
CYP2D6 = CYP2D6 (Homo sapiens, UniProt P10635); test: Inhibition of human recombinant CYP2D6 at 10 uM relative to control; format: ADME
[1] = target: Mitogen-activated protein kinase 14 (Homo sapiens, UniProt Q16539); test: Inhibition of human p38 MAPK alpha incubated for 1 hr by photometric method
CYP2C9 = CYP2C9 (Homo sapiens, UniProt P11712); test: Inhibition of human recombinant CYP2C9 at 10 uM relative to control; format: ADME
Blood [2] = test: Antiinflammatory activity against LPS-stimulated C57BL/6 mouse whole blood assessed as reduction in IL-6 incubated for 24 hrs by ELISA based method; format: functional; set-up: scale not given: the % may be the effect or the level left; conditions: dose 1-100 nM, at 1 to 100 nM
CYP3A4 = CYP3A4 (Homo sapiens, UniProt P08684); test: Inhibition of human recombinant CYP3A4 at 10 uM relative to control; format: ADME
CYP3A4, sequence (P08684 whole entry): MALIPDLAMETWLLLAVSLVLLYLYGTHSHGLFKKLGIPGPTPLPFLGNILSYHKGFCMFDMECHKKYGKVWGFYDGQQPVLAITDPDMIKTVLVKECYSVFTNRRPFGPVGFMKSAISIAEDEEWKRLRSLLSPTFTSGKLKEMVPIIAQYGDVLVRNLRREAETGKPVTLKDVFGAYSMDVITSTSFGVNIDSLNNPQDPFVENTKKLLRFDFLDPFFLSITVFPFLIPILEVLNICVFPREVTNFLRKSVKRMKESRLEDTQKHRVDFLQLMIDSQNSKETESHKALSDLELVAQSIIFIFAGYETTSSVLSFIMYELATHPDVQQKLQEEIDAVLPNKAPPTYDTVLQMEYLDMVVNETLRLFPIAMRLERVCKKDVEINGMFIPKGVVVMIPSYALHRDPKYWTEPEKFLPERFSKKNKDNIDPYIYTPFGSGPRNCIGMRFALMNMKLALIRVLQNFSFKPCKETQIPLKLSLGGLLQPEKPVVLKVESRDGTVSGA

Splenocyte [3] = test: Cytotoxicity against Balb/c mouse splenocytes assessed as metabolic activity at 1 to 10 nM incubated for 24 hrs by MTT assay; format: toxicity, cell-based; conditions: 0.01 µM, dose 1-10 nM
[4] = Metabolic stability in human liver microsomes assessed as parent compound remaining incubated for 120 mins; format: ADME, Microsome; conditions: read-out: Stability
CYP1A2 = target: T1, CYP1A2 (Homo sapiens, UniProt P05177); test: Inhibition of human recombinant CYP1A2 at 10 uM relative to control; format: ADME
T1 sequence (P05177 whole entry): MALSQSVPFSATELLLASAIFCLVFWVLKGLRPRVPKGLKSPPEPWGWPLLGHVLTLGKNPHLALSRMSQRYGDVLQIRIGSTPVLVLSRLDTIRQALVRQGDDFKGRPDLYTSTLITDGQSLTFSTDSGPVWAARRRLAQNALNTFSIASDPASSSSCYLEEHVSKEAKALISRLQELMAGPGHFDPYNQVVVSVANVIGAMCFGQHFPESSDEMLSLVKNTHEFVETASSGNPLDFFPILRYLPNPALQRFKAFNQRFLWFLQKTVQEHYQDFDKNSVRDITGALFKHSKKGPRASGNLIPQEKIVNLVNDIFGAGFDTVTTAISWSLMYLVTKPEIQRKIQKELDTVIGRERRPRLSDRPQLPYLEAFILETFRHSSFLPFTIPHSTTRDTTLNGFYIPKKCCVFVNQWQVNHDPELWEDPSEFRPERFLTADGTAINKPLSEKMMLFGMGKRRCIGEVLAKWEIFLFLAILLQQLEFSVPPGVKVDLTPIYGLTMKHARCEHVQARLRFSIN

Blood [5] = test: Antiinflammatory activity against LPS-stimulated C57BL/6 mouse whole blood assessed as reduction in TNF-alpha at 10 nM incubated for 24 hrs by ELISA based method; format: functional; conditions: C57BL/6, Blood
CYP2C19 = CYP2C19 (Homo sapiens, UniProt P33261); test: Inhibition of human recombinant CYP2C19 at 10 uM relative to control; format: ADME
CYP2C19, sequence (P33261 whole entry): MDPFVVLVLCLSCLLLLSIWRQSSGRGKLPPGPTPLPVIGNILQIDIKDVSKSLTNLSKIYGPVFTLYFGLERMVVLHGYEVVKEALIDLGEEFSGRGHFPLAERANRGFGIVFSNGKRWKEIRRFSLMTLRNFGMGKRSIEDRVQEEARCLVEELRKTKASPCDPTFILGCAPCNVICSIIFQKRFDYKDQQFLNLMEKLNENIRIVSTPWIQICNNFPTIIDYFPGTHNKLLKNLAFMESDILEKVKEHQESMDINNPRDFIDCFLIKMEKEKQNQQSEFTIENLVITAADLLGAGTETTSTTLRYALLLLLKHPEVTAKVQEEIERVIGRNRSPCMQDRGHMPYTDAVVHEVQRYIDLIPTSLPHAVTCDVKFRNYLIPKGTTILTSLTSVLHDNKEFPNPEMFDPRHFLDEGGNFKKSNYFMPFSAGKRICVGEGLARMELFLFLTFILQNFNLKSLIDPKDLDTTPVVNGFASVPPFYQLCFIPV

[6] = Cytotoxicity against Balb/c mouse splenocytes assessed as metabolic activity at 100 nM incubated for 24 hrs by MTT assay relative to LPS-stimulated splenocytes; format: toxicity, cell-based, Splenocyte; conditions: read-out: Activity
hERG = hERG (Homo sapiens, UniProt Q12809); test: Inhibition of hERG at 10 uM by fluorimetric analysis relative to control; format: toxicity
hERG, sequence (Q12809 whole entry): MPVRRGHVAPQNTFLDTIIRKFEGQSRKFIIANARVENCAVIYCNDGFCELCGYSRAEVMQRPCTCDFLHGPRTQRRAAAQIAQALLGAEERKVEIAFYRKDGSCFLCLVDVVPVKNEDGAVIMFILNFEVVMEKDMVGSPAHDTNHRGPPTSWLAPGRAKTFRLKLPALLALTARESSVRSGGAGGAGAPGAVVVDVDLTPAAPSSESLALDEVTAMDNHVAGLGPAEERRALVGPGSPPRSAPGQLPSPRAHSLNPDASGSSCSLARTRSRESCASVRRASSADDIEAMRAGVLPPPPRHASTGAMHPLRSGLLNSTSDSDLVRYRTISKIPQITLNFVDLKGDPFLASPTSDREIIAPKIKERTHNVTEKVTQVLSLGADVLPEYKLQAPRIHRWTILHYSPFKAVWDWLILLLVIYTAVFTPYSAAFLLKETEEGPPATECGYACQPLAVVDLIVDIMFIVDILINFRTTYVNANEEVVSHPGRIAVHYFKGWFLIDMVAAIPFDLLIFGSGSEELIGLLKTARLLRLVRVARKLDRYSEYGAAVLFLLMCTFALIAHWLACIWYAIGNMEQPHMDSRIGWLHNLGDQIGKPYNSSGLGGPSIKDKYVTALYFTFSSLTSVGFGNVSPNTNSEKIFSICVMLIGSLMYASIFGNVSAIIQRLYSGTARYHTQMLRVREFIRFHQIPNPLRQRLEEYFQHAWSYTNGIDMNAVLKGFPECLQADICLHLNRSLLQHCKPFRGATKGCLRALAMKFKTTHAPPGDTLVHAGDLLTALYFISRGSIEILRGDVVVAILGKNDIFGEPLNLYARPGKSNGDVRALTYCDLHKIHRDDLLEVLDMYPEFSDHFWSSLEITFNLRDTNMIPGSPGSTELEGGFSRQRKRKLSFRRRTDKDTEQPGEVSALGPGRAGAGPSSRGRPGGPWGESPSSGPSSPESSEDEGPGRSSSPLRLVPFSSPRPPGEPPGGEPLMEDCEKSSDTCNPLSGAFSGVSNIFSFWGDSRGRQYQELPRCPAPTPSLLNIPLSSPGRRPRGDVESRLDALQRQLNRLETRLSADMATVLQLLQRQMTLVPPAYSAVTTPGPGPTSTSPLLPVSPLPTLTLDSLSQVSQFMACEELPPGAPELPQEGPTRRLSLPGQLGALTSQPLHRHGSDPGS

[7] = Ratio of drug concentration in RjOrl:Swiss (CD-1) mouse brain to plasma at 10mg/kg, iv administered measured after 2 hrs by LC-MS/MS analysis; format: ADME, organism-based; conditions: brain and plasma, read-out: BPR
[8] = Drug uptake in RjOrl:Swiss (CD-1) mouse brain at 10 mg/kg, iv administered measured after 2 hrs by LC-MS/MS analysis; format: ADME, organism-based; conditions: read-out: Ct
[9] = Drug concentration in rat brain at 4.5 mg/kg, po measured after 1 hrs by LC/MS/MS analysis; format: ADME, organism-based; conditions: in vivo
[10] = Drug concentration in rat plasma at 4.5 mg/kg, po measured after 1 hrs by LC/MS/MS analysis; format: ADME, organism-based
[11] = Drug concentration in rat plasma at 1.5 mg/kg, po measured after 1 hrs by LC/MS/MS analysis; format: ADME, organism-based
[12] = Ratio of drug concentration in rat brain to plasma; conditions: brain and plasma
[13] = Drug concentration in rat brain at 1.5 mg/kg, po measured after 1 hrs by LC/MS/MS analysis; format: ADME, organism-based; conditions: in vivo
[14] = Drug uptake in mouse C57BL/6 brain at 0.4 mg/kg,po measured upto 240 mins by LC-MS/MS analysis; format: ADME, organism-based; conditions: in vivo, 4 h
Blood [15] = test: Antiinflammatory activity against LPS-stimulated C57BL/6 mouse whole blood assessed as reduction in TNF-alpha at 1 nM incubated for 24 hrs by ELISA based method; format: functional; set-up: scale not given: the % may be the effect or the level left
[16] = Drug uptake in mouse C57BL/6 brain at 0.4 mg/kg,iv measured upto 240 mins by LC-MS/MS analysis; format: ADME, organism-based; conditions: in vivo, 4 h
Splenocyte [17] = test: Antiinflammatory activity against LPS-stimulated Balb/c mouse splenocytes assessed as reduction in IL-6 at 100 nM incubated for 24 hrs by ELISA based method; format: functional; set-up: scale not given: the % may be the effect or the level left

Mitogen-activated protein kinase 14, sequence (Q16539 whole entry): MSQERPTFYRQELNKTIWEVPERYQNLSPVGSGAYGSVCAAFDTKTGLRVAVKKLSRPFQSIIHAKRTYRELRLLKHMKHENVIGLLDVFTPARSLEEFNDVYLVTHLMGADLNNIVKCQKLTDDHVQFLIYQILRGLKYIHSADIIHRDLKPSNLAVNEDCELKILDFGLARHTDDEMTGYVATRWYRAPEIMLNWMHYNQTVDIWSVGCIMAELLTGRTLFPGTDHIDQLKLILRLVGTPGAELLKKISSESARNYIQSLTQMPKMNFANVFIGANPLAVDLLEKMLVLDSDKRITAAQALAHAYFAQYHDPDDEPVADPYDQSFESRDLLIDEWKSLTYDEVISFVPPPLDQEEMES
CYP2D6, sequence (P10635 whole entry): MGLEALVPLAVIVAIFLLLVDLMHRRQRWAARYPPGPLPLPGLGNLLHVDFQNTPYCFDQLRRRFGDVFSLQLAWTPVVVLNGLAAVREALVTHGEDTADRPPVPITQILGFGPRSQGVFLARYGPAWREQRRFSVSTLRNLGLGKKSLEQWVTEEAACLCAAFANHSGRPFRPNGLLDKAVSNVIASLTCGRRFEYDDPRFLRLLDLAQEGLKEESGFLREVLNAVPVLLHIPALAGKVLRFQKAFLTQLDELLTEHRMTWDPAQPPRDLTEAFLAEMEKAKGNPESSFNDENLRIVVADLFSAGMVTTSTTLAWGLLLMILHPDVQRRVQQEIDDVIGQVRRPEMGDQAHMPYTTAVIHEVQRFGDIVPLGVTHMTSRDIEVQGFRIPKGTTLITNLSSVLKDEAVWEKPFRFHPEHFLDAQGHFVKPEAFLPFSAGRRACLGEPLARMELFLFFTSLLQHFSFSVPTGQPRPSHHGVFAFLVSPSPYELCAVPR
CYP2C9, sequence (P11712 whole entry): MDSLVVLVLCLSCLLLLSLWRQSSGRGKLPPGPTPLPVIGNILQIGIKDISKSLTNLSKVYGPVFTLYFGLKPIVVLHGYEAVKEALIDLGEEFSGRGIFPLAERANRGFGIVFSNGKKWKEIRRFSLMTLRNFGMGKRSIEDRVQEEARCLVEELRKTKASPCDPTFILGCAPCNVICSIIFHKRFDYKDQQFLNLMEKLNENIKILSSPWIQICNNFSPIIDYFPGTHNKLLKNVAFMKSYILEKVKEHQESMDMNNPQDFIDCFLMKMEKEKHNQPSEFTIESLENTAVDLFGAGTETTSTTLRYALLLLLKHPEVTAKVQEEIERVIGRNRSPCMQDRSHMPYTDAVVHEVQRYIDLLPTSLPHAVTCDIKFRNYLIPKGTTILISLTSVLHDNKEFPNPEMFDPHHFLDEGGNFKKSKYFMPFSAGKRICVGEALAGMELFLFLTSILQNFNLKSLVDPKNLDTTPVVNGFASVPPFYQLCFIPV

Row | SMILES | inhibition at 10 µM (CYP2D6) [%] | IC50 [1] [nM] | inhibition at 10 µM (CYP2C9) [%] | Activity (Blood [2]) [%] | inhibition at 10 µM (CYP3A4) [%] | Activity (Splenocyte [3]) | remaining at 2 h [4] [%] | inhibition at 10 µM (CYP1A2) [%] | inhibition at 0.01 µM (Blood [5]) [%] | inhibition at 10 µM (CYP2C19) [%] | viability at 24 h, 0.1 µM [6] [%] | inhibition at 10 µM (hERG) [%] | also measured
1 | COC(=O)CCNC(=O)c1ccc2c(c1)C(=O)c1ccc(Nc3ccc(F)cc3F)cc1CC2 | 73.7 | 1.2 | 99.4 | 85 | 68 | Non-Toxic | 0 | 27.3 | 50 | 100 | 66 | 59.9 | –
2 | COC(=O)CCNC(=O)c1ccc2c(c1)C(=O)c1ccc(Nc3ccccc3N)cc1CC2 | – | 29 | – | 81 | – | Non-Toxic | – | – | 50 | – | 66 | – | –
3 | O=C(O)CCCNC(=O)c1ccc2c(c1)C(=O)c1ccc(Nc3ccc(F)cc3F)cc1CC2 | 2 | 12 | 66 | 71 | 38.1 | Non-Toxic | 99 | 16.2 | 50 | 63.2 | 66 | 14.4 | Kp at 2 h [7]: 4.38; concentration at 2 h [8]: 98.2 ng/g
4 | O=c1ncn2nc(Sc3ccc(F)cc3F)ccc2c1-c1c(Cl)cccc1Cl [NEFLAMAPIMOD] | – | – | – | – | – | – | – | – | – | – | – | – | Ct [9]: 359 nmol/kg; concentration at 1 h [10]: 92 ng/mL; concentration at 1 h [11]: 33 ng/mL; Kp [12]: 1.7; Ct [13]: 129 nmol/kg
5 | O=C(Nc1ccccc1)c1ccc2c(c1)C(=O)c1ccc(Nc3ccc(F)cc3F)cc1CC2 | – | 2.4 | – | – | – | Non-Toxic | – | – | – | – | 66 | – | Drug uptake [14]: Not Active; Activity (Blood [15]): 5%; Drug uptake [16]: Not Active; Activity (Splenocyte [17]): 51%
